From patent US11319315B2, “Cyclohexyl acid triazole azoles as LPA antagonists” (BRISTOL-MYERS SQUIBB COMPANY, priority 2017, dated 2022) come the findings set out here.

The structures appear in SMILES notation.

The target of the first assay is T1, human LPA1 (Homo sapiens, UniProt Q92633).
T1 construct: expressed in transfected cells; host or cells: Chinese hamster ovary (CHO) cells
T1 sequence (Q92633 whole entry): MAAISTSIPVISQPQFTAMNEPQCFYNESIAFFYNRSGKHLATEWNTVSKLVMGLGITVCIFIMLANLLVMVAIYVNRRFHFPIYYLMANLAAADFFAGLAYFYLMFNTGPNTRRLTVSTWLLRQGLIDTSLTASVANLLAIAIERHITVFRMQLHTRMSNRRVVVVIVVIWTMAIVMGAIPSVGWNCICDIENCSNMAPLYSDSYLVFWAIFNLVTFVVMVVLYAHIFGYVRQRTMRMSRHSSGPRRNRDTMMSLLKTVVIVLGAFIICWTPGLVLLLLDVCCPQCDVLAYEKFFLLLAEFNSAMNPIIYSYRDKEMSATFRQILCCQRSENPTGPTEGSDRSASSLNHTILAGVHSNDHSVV
The assay can be described thus: LPA1 functional antagonist assay (LPA-induced calcium flux in CHO cells overexpressing human LPA1). The class given is cell-based. As to conditions: inhibition of calcium flux induced by 10 nM LPA, CHO cells overexpressing human LPA1; read-out: hLPA1 IC50. A digest of the protocol: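 Calcium flux was triggered by 10 nM LPA after 20 min room-temperature compound pre-incubation (final 0.08 nM to 5 μM, 0.5% DMSO) in human LPA1-overexpressing CHO cells carrying calcium dye. Buffer: HBSS with Ca/Mg, 20 mM HEPES, 0.1% fatty-acid-free BSA; IC50s from 4-parameter logistic fits.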
On the technique in general: A change in cytosolic calcium serves as a functional read-out for many receptors and channels.
The IC50 is the concentration needed to halve the response being measured. With `Cc1nc(-c2nnn(C)c2CNc2nnn(-c3ccc(Cl)cc3)n2)ccc1O[C@H]1CCC[C@H](C(=O)O)C1` [Example 384, (1S,3S)-3-((6-(5-(((2-(4-chloro-phenyl)-2H-tetrazol-5-yl)amino)methyl)-1-methyl-1H-1,2,3-triazol-4-yl)-2-methylpyridin-3-yl)oxy)cyclohexane-1-carboxylic acid], the IC50 is 41 nM.

The assay is the same for the next values; noted with them: read-out: hLPA1 IC50.
In the case of `CCCCN(CCCC)c1nnn(Cc2c(-c3ccc(O[C@H]4CCC[C@H](C(=O)O)C4)c(C)n3)nnn2C)n1` [Example 363, (1S,3S)-3-((6-(5-((5-(dibutylamino)-2H-tetrazol-2-yl)methyl)-1-methyl-1H-1,2,3-triazol-4-yl)-2-methyl-pyridin-3-yl)oxy)cyclohexane-1-carboxylic acid], the IC50 came out at 229 nM. In the case of `Cc1nc(-c2nnn(C)c2Cn2nnc(N(C)Cc3ccccc3)n2)ccc1O[C@H]1CCC[C@H](C(=O)O)C1` [Example 364, (1S,3S)-3-((6-(5-((5-(benzyl(methyl)amino)-2H-tetrazol-2-yl)methyl)-1-methyl-1H-1,2,3-triazol-4-yl)-2-methylpyridin-3-yl)oxy)cyclohexane-1-carboxylic acid], the IC50 was 273 nM. In the case of `CCCCn1nnnc1Cc1c(-c2ccc(O[C@H]3CCC[C@H](C(=O)O)C3)c(C)n2)nnn1C` [Example 365, (1S,3S)-3-((6-(5-((1-butyl-1H-tetrazol-5-yl)methyl)-1-methyl-1H-1,2,3-triazol-4-yl)-2-methylpyridin-3-yl)oxy)cyclohexane-1-carboxylic acid], the IC50 was 322 nM. With `CCCCn1nnc(Cc2c(-c3ccc(O[C@H]4CCC[C@H](C(=O)O)C4)c(C)n3)nnn2C)n1` [Example 366, (1S,3S)-3-((6-(5-((2-butyl-2H-tetrazol-5-yl)methyl)-1-methyl-1H-1,2,3-triazol-4-yl)-2-methylpyridin-3-yl)oxy)cyclohexane-1-carboxylic acid], the IC50 worked out at 43 nM. `Cc1nc(-c2nnn(C)c2Cn2nnc(N(Cc3ccccc3)Cc3ccccc3)n2)ccc1O[C@H]1CCC[C@H](C(=O)O)C1` [Example 367, (1S,3S)-3-((6-(5-((5-(dibenzyl-amino)-2H-tetrazol-2-yl)methyl)-1-methyl-1H-1,2,3-triazol-4-yl)-2-methylpyridin-3-yl)oxy)cyclo-hexane-1-carboxylic acid]: the IC50 turned out to be 1580 nM. Take `Cc1nc(-c2nnn(C)c2Cn2nnc(NCc3ccccc3)n2)ccc1O[C@H]1CCC[C@H](C(=O)O)C1` [Example 368, (1S,3S)-3-((6-(5-((5-(benzylamino)-2H-tetrazol-2-yl)methyl)-1-methyl-1H-1,2,3-triazol-4-yl)-2-methyl-pyridin-3-yl)oxy)cyclohexane-1-carboxylic acid]: the 50% inhibitory concentration (IC50) amounted to 1020 nM. As to `Cc1nc(-c2nnn(C)c2Cc2nnnn2Cc2ccccc2)ccc1O[C@H]1CCC[C@H](C(=O)O)C1` [Example 369, (1S,3S)-3-((6-(5-((1-benzyl-1H-tetrazol-5-yl)methyl)-1-methyl-1H-1,2,3-triazol-4-yl)-2-methylpyridin-3-yl)oxy)cyclohexane-1-carboxylic acid], the IC50 came out at 123 nM. As to `CCc1nc(-c2nnn(C)c2Cn2cc(CC(C)C)nn2)ccc1O[C@H]1CCC[C@H](C(=O)O)C1` [Example 370, (1S,3S)-3-((2-ethyl-6-(5-((4-isobutyl-1H-1,2,3-triazol-1-yl)methyl)-1-methyl-1H-1,2,3-triazol-4-yl)pyridin-3-yl)oxy)cyclohexane-1-carboxylic acid], the 50% inhibitory concentration (IC50) was 66 nM. The same measure, in the same setting: then `CCc1nc(-c2nnn(C)c2Cn2cc(C(C)C)nn2)ccc1O[C@H]1CCC[C@H](C(=O)O)C1` [Example 371, (1S,3S)-3-((2-ethyl-6-(5-((4-isopropyl-1H-1,2,3-triazol-1-yl)methyl)-1-methyl-1H-1,2,3-triazol-4-yl)pyridin-3-yl)oxy)cyclohexane-1-carboxylic acid], with 1540 nM; and `CCCc1cn(Cc2c(-c3ccc(O[C@H]4CCC[C@H](C(=O)O)C4)c(CC)n3)nnn2C)nn1` [Example 372, (1S,3S)-3-((2-ethyl-6-(1-methyl-5-((4-propyl-1H-1,2,3-triazol-1-yl)methyl)-1H-1,2,3-triazol-4-yl)pyridin-3-yl)oxy)cyclohexane-1-carboxylic acid], with 303 nM; and `Cc1nc(-c2nnn(C)c2Cc2nnn(CC(C)C)n2)ccc1O[C@H]1CCC[C@H](C(=O)O)C1` [Example 373, (1S,3S)-3-((6-(5-((2-isobutyl-2H-tetrazol-5-yl)methyl)-1-methyl-1H-1,2,3-triazol-4-yl)-2-methylpyridin-3-yl)oxy)cyclohexane-1-carboxylic acid], with 136 nM. For `Cc1nc(-c2nnn(C)c2Cc2nnnn2CC(C)C)ccc1O[C@H]1CCC[C@H](C(=O)O)C1` [Example 374, (1S,3S)-3-((6-(5-((1-isobutyl-1H-tetrazol-5-yl)methyl)-1-methyl-1H-1,2,3-triazol-4-yl)-2-methylpyridin-3-yl)oxy)cyclohexane-1-carboxylic acid], the IC50 was found to be 207 nM. On to `CCCCCc1cn(Cc2c(-c3ccc(O[C@H]4CCC[C@H](C(=O)O)C4)c(CC)n3)nnn2C)nn1` [Example 375, (1S,3S)-3-((2-ethyl-6-(1-methyl-5-((4-pentyl-1H-1,2,3-triazol-1-yl)methyl)-1H-1,2,3-triazol-4-yl)pyridin-3-yl)oxy)cyclohexane-1-carboxylic acid], for which the IC50 is 585 nM. On the same count and under the same terms, the value for `CCn1nnc(NCc2c(-c3ccc(O[C@H]4CCC[C@H](C(=O)O)C4)c(C)n3)nnn2C)n1` [Example 376, (1S,3S)-3-((6-(5-(((2-ethyl-2H-tetrazol-5-yl)amino)methyl)-1-methyl-1H-1,2,3-triazol-4-yl)-2-methylpyridin-3-yl)oxy)cyclohexane-1-carboxylic acid] was 2110 nM. Consider `Cc1nc(-c2nnn(C)c2CN(CC2CC2)c2nnn(CC3CC3)n2)ccc1O[C@H]1CCC[C@H](C(=O)O)C1` [Example 377, (1S,3S)-3-((6-(5-(((cyclopropyl-methyl)(2-(cyclopropylmethyl)-2H-tetrazol-5-yl)amino)methyl)-1-methyl-1H-1,2,3-triazol-4-yl)-2-methylpyridin-3-yl)oxy)cyclohexane-1-carboxylic acid], for which the IC50 was 1240 nM. On to `Cc1nc(-c2nnn(C)c2CNc2nnnn2CC2CC2)ccc1O[C@H]1CCC[C@H](C(=O)O)C1` [Example 378, (1S,3S)-3-((6-(5-(((1-(cyclopropylmethyl)-1H-tetrazol-5-yl)amino)methyl)-1-methyl-1H-1,2,3-triazol-4-yl)-2-methylpyridin-3-yl)oxy)cyclohexane-1-carboxylic acid], for which the IC50 came to 300 nM. Same read-out and setting: the value for `COc1ccc(-n2nnc(NCc3c(-c4ccc(O[C@H]5CCC[C@@H](C(=O)O)C5)c(C)n4)nnn3C)n2)cc1` [Example 379, (1R,3S)-3-((6-(5-(((2-(4-methoxy-phenyl)-2H-tetrazol-5-yl)amino)methyl)-1-methyl-1H-1,2,3-triazol-4-yl)-2-methylpyridin-3-yl)oxy)cyclohexane-1-carboxylic acid] was 2080 nM; that for `Cc1cccc(-n2nnc(NCc3c(-c4ccc(O[C@H]5CCC[C@H](C(=O)O)C5)c(C)n4)nnn3C)n2)c1` [Example 380, (1S,3S)-3-((2-methyl-6-(1-methyl-5-(((2-(m-tolyl)-2H-tetrazol-5-yl)amino)methyl)-1H-1,2,3-triazol-4-yl)pyridin-3-yl)oxy)cyclohexane-1-carboxylic acid] was 183 nM. On to `Cc1ccccc1-n1nnc(NCc2c(-c3ccc(O[C@H]4CCC[C@H](C(=O)O)C4)c(C)n3)nnn2C)n1` [Example 381, (1S,3S)-3-((2-methyl-6-(1-methyl-5-(((2-(o-tolyl)-2H-tetrazol-5-yl)amino)methyl)-1H-1,2,3-triazol-4-yl)pyridin-3-yl)oxy)cyclohexane-1-carboxylic acid], for which the IC50 was 313 nM. On to `CCCCn1nnc(NCc2c(-c3ccc(O[C@H]4CCC[C@H](C(=O)O)C4)c(C)n3)nnn2C)n1` [Example 382, (1S,3S)-3-((6-(5-(((2-butyl-2H-tetrazol-5-yl)amino)methyl)-1-methyl-1H-1,2,3-triazol-4-yl)-2-methylpyridin-3-yl)oxy)cyclo-hexane-1-carboxylic acid], for which the IC50 worked out at 521 nM. For the compound `COc1ccc(-n2nnc(NCc3c(-c4ccc(O[C@H]5CCC[C@H](C(=O)O)C5)c(C)n4)nnn3C)n2)cc1` [Example 383, (1S,3S)-3-((6-(5-(((2-(4-methoxy-phenyl)-2H-tetrazol-5-yl)amino)methyl)-1-methyl-1H-1,2,3-triazol-4-yl)-2-methylpyridin-3-yl)oxy)cyclohexane-1-carboxylic acid], the IC50 was 513 nM. As to `Cc1ccc(-n2nnc(NCc3c(-c4ccc(O[C@H]5CCC[C@H](C(=O)O)C5)c(C)n4)nnn3C)n2)cc1` [Example 385, (1S,3S)-3-((2-methyl-6-(1-methyl-5-(((2-(p-tolyl)-2H-tetrazol-5-yl)amino)methyl)-1H-1,2,3-triazol-4-yl)pyridin-3-yl)oxy)cyclohexane-1-carboxylic acid], the IC50 stood at 158 nM. `Cc1nc(-c2nnn(C)c2CNc2nnn(CC3CC3)n2)ccc1O[C@H]1CCC[C@H](C(=O)O)C1` [Example 386, (1S,3S)-3-((6-(5-(((2-(cyclopropyl-methyl)-2H-tetrazol-5-yl)amino)methyl)-1-methyl-1H-1,2,3-triazol-4-yl)-2-methylpyridin-3-yl)oxy)cyclohexane-1-carboxylic acid]: the IC50 was 26 nM.

For `CCCn1nnc(NCc2c(-c3ccc(O[C@H]4CCC[C@H](C(=O)O)C4)c(C)n3)nnn2C)n1` [Example 387, (1S,3S)-3-((2-methyl-6-(1-methyl-5-(((2-propyl-2H-tetrazol-5-yl)amino)methyl)-1H-1,2,3-triazol-4-yl)pyridin-3-yl)oxy)cyclohexane-1-carboxylic acid], the IC50 was 285 nM.
